# Laboratory results as given in patent publication US20030139609A1, “Aziridinyl quinone antitumor agents based on indoles and cyclopent[b]indoles” (priority 2001, published 2003).
# Values joined by “and” are separate entries in the source; they are usually repeats but may differ in a detail not shown here. Identical values can stand only once. Like-named read-outs stand apart in the source and are kept apart here.
# Experiments:
# [1] = system: National Cancer Institute 60-cell line; assay: NCI 60-cell line in vitro screen (average cytotoxicity and cancer specificity); conditions: for Average Log LC50 60-Cell Line: mean over 60 cell lines, ± value measures cancer specificity
# Procedure: Cytotoxic and Cytostatic Screening of Series 1-9. […] The cytostatic parameters include GI50 and TGI, which are the concentrations of drug required for 50% growth inhibition and total growth inhibition, respectively. The cytotoxic parameter is the LC50, which is the concentration required for 50% cell kill.
# 4. […] Cancer specificity is measured from the ± value under the “Average Log LC50 60-Cell Line” heading of Table 5. A ± value greater than 2 indicates a greater than 100-fold higher/lower cytotoxicity in some histological cancer types compared to the mean cytotoxicity.
# The DT-diaphorase levels in the National Cancer Institute 60-cell line in vitro screen have been determined and correlated with the cytotoxicity of antitumor agents activated by 2-electron reduction. {Fitzsimmons, S. A., Workman, P., Grever, M., Paull, K., Camalier, R., and Lewis, A. D., Reductase Enzyme Expression Across the National Cancer Institute Tumor Cell Line Panel: Correlation with Sensitivity To Mitomycin C and EO9, J. Natl. Cancer Inst., 1996, 88, 259-69}. Sensitive cancers usually include NSC lung and colon cancers (and to a lesser extent CNS, melanoma, and renal cancers) by virtue of their elevated DT-diaphorase levels.
# [2] = system: NCI-H460 non-small-lung cancer cell line; assay: NCI In Vitro Cell Line Screening, NSC H460 cell line; assay type: cell-based; conditions: for Log TGI NSC H460: concentration for total growth inhibition; for GI50 / CC50: Homo sapiens
# From the text: Cytotoxic and Cytostatic Screening of Series 1-9.
# [3] = system: 600 bp calf thymus DNA; assay: DNA reductive alkylation by catalytically reduced aziridinyl quinones; assay type: biochemical; conditions: for DNA alkylation percentage: catalytic reduction, anaerobic, pH 7.4 tris buffer, 30° C., 24 h, absorbance at 550 nm
# Procedure: DNA Alkylation Screening of Series 1-9. The extent of DNA reductive alkylation was determined by catalytic reduction of the aziridinyl quinones in the presence of 600 bp calf thymus DNA. Oxidative workup afforded DNA colored blue as a result of the aminoquinone chromophore. […] The anaerobic conditions employed for DNA reductive alkylation assays is not meant to mimic the environment of tumor cells. These conditions do permit an accurate assessment of the structural requirements for DNA alkylation by the hydroquinone species. To be sure, agents incapable of akylating DNA under these ideal conditions will not do so in the typical cellular environment.
# Alkylation of DNA by Reduced Indoloquinones. To a mixture of 1-2 mg of sonicated (600 bp) calf thymus DNA in 2.0 mL of 0.05 M of pH 7.4 tris buffer and 2 mg of Pd on carbon was added a five-to-one base pair equivalent amount of the indoloquinone dissolved in 0.5 mL of dimethylsulfoxide. The resulting solution was degassed under argon for 30 min., after which the mixture was purged with H2 for 10 min. The solution was then purged with argon for 10 min. and placed in a 30° C. bath for 24 h. The reaction was opened to the air and the catalyst was removed with a Millex-PF […] syringe filter. The filtrate was adjusted to 0.3 M acetate with a 3 M stock solution of pH 5.1 acetate and then diluted with two volumes of ethanol. The mixture was chilled at −20° C. for 12 h and the DNA pellet collected by centrifuging at 12,000 g for 20 min. The pellet was redissolved in water and then precipitated and centrifuged again. The resulting blue or red pellet was suspended in ethanol, centrifuged, and dried. The dried pellet was weighed and dissolved in 1 mL of double distilled water resulting in a clear colored solution with […]max˜550 nm, □˜750 M^−1 cm^−1. This is the chromophore of the aminoquinone resulting from nucleophile-mediated opening of the aziridine ring. Model 2′-chloroethyl aminoquinones for extinction coefficient determination were prepared by treatment of the indoloquinone with HCl. {Skibo, E. B. and Xing, C., Chemistry and DNA Alkylation Reactions of Aziridinyl Quinones: Development of an Efficient Alkylating Agent of the Phosphate Backbone, Biochemistry, 1998, 37, 15199-15213}.
# [4] = system: B16 melanoma; assay: animal or person; assay type: in vivo; conditions: for in vivo toxicity (in words) / in vivo antitumor activity (in words): 2, 3 or 5 mg/kg/day; for response vs control in vivo at 2 mg/kg / response vs control in vivo at 3 mg/kg / response vs control in vivo at 5 mg/kg: Mus musculus, B16, 600 h, read-out: In vivo T/C (Treated/Control)
# From the text: Shown in Tables 6 and 7 are B16 melanoma syngraft assays {Griswold, D. P., Consideration of the Subcutaneously Implanted B16 Melanoma as a Screening Model for Potential Anticancer Agents, Cancer Chemother Reports, 1972, 3, 315-324} of some members of Series 1-9, as well as related compounds previously reported from this laboratory. {Xing, C. G., Wu, P., Skibo, E. B., and Dorr, R. T., Design of cancer-specific antitumor agents based on aziridlinylcyclopent[b]indoloquinones, J. Med. Chem., 2000, 43, 457-466}. Each agent was evaluated at three doses in C57/bl mice: 2, 3 or 5 mg/kg/day, on days 1, 5, and 9 after subcutaneous tumor implantation of 10^5 cells in the front flank on day 0. “Toxic” means that there was early lethality, or ≧50% lethality prior to any deaths in the control group. The treated over control values (T/C) were measured at day 25 of the study. A T/C value <40% is considered active.
# In vivo Evaluation. The B-16 melanoma in C57/bl mice syngraft model was employed to determine in vivo activity. {Griswold, D. P., Consideration of the Subcutaneously Implanted B16 Melanoma as a Screening Model for Potential Anticancer Agents, Cancer Chemother Reports, 1972, 3, 315-324}. Each agent was evaluated at three doses: 2, 3 or 5 mg/kg/day, on days 1, 5, and 9 after subcutaneous tumor implantation of 10^5 cells in the front flank on day 0. “Toxic” means that there was early lethality, or ≧50% lethality prior to any deaths in the control group. The treated over control values (T/C) were measured at day 25 of the study. A T/C value<40% is considered active. […] The control was obtained with drug-free animals.
# [5] = NCI-H460, concentration for 50% growth inhibition, read-out: Log GI50 NSC H460 (converted)
# [6] = NCI-H460, read-out: Log LC50 NSC H460, concentration for 50% cell kill (converted)
# [7] = 5 mg/Kg/Day on days 1, 5, 9, T/C at day 25, <40% active
# [8] = 2 mg/Kg/Day on days 1, 5, 9, T/C at day 25, <40% active
# [9] = 3 mg/Kg/Day on days 1, 5, 9, T/C at day 25, <40% active
# [10] = NCI-H460, read-out: Log GI50 NSC H460 (converted)
compound,measurement,setting,value
"6-Aziridinyl-3-(hydroxymethyl)-2-methylcarboxylindol-4,7-dione [Compound 9b]",Average Log LC50 60-Cell Line,[1],−5.20 ± 1.04 and −5.32 ± 1.14
same,cytostatic/cytotoxic activity versus histological cancer type (in words),"[1]; text b52, FIG. 4",significant cytotoxic and cytostatic properties
same,Log LC50 NSC H460,[2]; concentration for 50% cell kill,−5.21 and −4.95
same,Log GI50 NSC H460,[2]; concentration for 50% growth inhibition,−5.90 and −5.80
same,Log TGI NSC H460,[2],−5.55 and −5.39
same,% of DNA bases reductively activated,[3],2%
same,DNA alkylation percentage,[3],2.2%
"O=C1C=C(N2CC2)C(=O)c2c1[nH]c1c2CCC1O (stereo not shown) [Compound 1a, 7-Aziridinyl-3-hydroxy-1,2,3,4-tetrahydrocyclopent[b]indole-5,8-dione]",Average Log LC50 60-Cell Line,[1],−5.66 ± 1.52
same,GI50,[2]; [5],10 nM
same,CC50,[2]; [6],295 nM
same,Log TGI NSC H460,[2],−6.99
same,DNA alkylation percentage,[3],22.5%
"CC1=C(N2CC2)C(=O)c2c([nH]c3c2CCC3O)C1=O (stereo not shown) [Compound 2a, 7-Aziridinyl-3-hydroxy-6-methyl-1,2,3,4-tetrahydrocyclopent[b]indole-5,8-dione]",GI50,[2]; [5],10 nM
same,DNA alkylation percentage,[3],11.2%
"CC(=O)OC1CCc2c1[nH]c1c2C(=O)C=C(N2CC2)C1=O (stereo not shown) [Compound 3b, 3-Acetoxy-6-aziridinyl-1,2,3,4-tetrahydrocyclopent[b]indole-5,8-dione]",In vivo T/C (Treated/Control),[4]; [7],Toxic (“Toxic” means ≧ 50% lethality before any control growth deaths)
same,DNA alkylation percentage,[3],29%
"CC(=O)OC1CCc2c3c(n(C(C)=O)c21)C(=O)C(N1CC1)=CC3=O (stereo not shown) [Compound 3c, 6-Aziridinyl-3-acetoxy-4-acetyl-1,2,3,4-tetrahydrocyclopent[b]indole-5,8-dione]",in vivo toxicity (in words),[4],toxic
same,response vs control in vivo at 2 mg/kg,[4],> 50%
same,response vs control in vivo at 3 mg/kg,[4],> 50%
same,response vs control in vivo at 5 mg/kg,[4],> 50%
CC1=C(N2CC2)C(=O)c2[nH]c3c(c2C1=O)CCC3O (stereo not shown) [Compound 4a],in vivo toxicity (in words),[4],without any toxicity
same,response vs control in vivo at 2 mg/kg,[4]; [8],75%
same,response vs control in vivo at 3 mg/kg,[4]; [9],45%
same,GI50,[2]; [5],10 nM
same,CC50,[2]; [6],100000 nM
same,Log TGI NSC H460,[2],−6.97
same,DNA alkylation percentage,[3],10%
"O=C1C=C(N2CC2)C(=O)c2c1[nH]c(CO)c2CO [Compound 6a, 5-Aziridinyl-2,3-di(hydroxymethyl)indole-4,7-dione]",In vivo T/C (Treated/Control),[4]; [8],Toxic (“Toxic” means ≧ 50% lethality before any control growth deaths)
same,In vivo T/C (Treated/Control),[4]; [9],Toxic (“Toxic” means ≧ 50% lethality before any control growth deaths)
same,In vivo T/C (Treated/Control),[4]; [7],Toxic (“Toxic” means ≧ 50% lethality before any control growth deaths)
same,DNA alkylation percentage,[3],16.7%
"CCOC(=O)c1[nH]c2c(c1CO)C(=O)C(N1CC1)=CC2=O [Compound 6c, 5-Aziridinyl-2-ethylcarboxyl-3-(hydroxymethyl)indole-4,7-dione]",Average Log LC50 60-Cell Line,[1],−5.79 ± 1.98
same,GI50,[2]; [10],10 nM
same,CC50,[2]; [6],631 nM
same,CC50,"[2]; NCI-H460, read-out: −log LC50 value, H460 cell line (converted)",631 nM
same,Log TGI NSC H460,[2],−7 and −6.95
"CC(=O)OCc1[nH]c2c(c1COC(C)=O)C(=O)C(N1CC1)=CC2=O [Compound 6e, 5-Aziridinyl-2,3-di(acetoxymethyl)indole-4,7-dione]",DNA alkylation (in words),[3],high DNA alkylation percentages
same,DNA alkylation percentage,[3],43%
"CCOC(=O)c1[nH]c2c(c1CO)C(=O)C(N1CC1)=C(C)C2=O [Compound 7b, 5-Aziridinyl-2-ethylcarboxyl-3-hydroxymethyl-6-methylindole-4,7-dione]",Average Log LC50 60-Cell Line,[1],−5.69 ± 2.31 and −5.75 ± 2.25
same,GI50,[2]; [10],10 nM
same,Log TGI NSC H460,[2],−7.99 and −7.96
"CC1=C(N2CC2)C(=O)c2[nH]c(CO)c(CO)c2C1=O [Compound 8a, 6-Aziridinyl-2,3-di(hydroxymethyl)-5-methylindole-4,7-dione]",In vivo T/C (Treated/Control),[4]; [9],Toxic (“Toxic” means ≧ 50% lethality before any control growth deaths)
same,In vivo T/C (Treated/Control),[4]; [7],Toxic (“Toxic” means ≧ 50% lethality before any control growth deaths)
same,response vs control in vivo at 2 mg/kg,[4]; [8],54%
same,DNA alkylation percentage,[3],4%
COC1CCc2c1[nH]c1c2C(=O)C(C)=C(N2CC2)C1=O (stereo not shown) [reference compound],in vivo toxicity (in words),[4],toxicity only seen at the highest dose
CC1=C(N2CC2)C(=O)c2[nH]c(C)c(C)c2C1=O [reference compound],response vs control in vivo at 2 mg/kg,[4],22%
same,response vs control in vivo at 3 mg/kg,[4],> 50%
same,response vs control in vivo at 5 mg/kg,[4],> 50%
CC1=C(N2CC2)C(=O)c2c([nH]c(C)c2C)C1=O [reference compound],In vivo T/C (Treated/Control),[4]; [7],Toxic (“Toxic” means ≧ 50% lethality before any control growth deaths)
same,response vs control in vivo at 2 mg/kg,[4]; [8],10%
same,response vs control in vivo at 3 mg/kg,[4]; [9],60%
CC1=C(N2CC2)C(=O)c2[nH]c(CO)c(C)c2C1=O [reference compound],in vivo antitumor activity (in words),[4],antitumor activity is retained
same,in vivo toxicity (in words),[4],without much toxicity
same,response vs control in vivo at 2 mg/kg,[4]; [8],61%
same,response vs control in vivo at 3 mg/kg,[4]; [9],37%
same,response vs control in vivo at 5 mg/kg,[4]; [7],34%
CC(=O)OCc1[nH]c2c(c1C)C(=O)C(C)=C(N1CC1)C2=O [reference compound],in vivo antitumor activity (in words),[4],inactive at all doses
CC(=O)OCc1[nH]c2c(c1C)C(=O)C(N1CC1)=C(C)C2=O [reference compound],In vivo T/C (Treated/Control),[4]; [9],Toxic (“Toxic” means ≧ 50% lethality before any control growth deaths)
same,In vivo T/C (Treated/Control),[4]; [7],Toxic (“Toxic” means ≧ 50% lethality before any control growth deaths)
same,response vs control in vivo at 2 mg/kg,[4]; [8],47%
